Laboratory results taken from PMC10146558, “Highly Cytotoxic Copper(II) Mixed-Ligand Quinolinonato Complexes: Pharmacokinetic Properties and Interactions with Drug Metabolizing Cytochromes P450” (Pharmaceutics, 2023).
Where “and” joins values, the source holds several entries; their conditions need not be identical. Equal values may be shown once.

Key:
[1] = Microsomal stability assay; assay type: in vitro ADME; conditions: human liver microsomes, NADPH-generating system, 5.74 μM
Description: (§1) Pharmacological properties of the complexes 1 and 2, including stability in plasma, microsomal stability, binding to plasma proteins, and permeability through an artificial membrane, were tested under in vitro conditions and according to methods described in previous reports. Analysis of the samples was performed using Agilent RapidFire 300 High-Throughput Mass Spectrometry System (Agilent Technologies, Wakefield, MA, USA) with subsequent detection using the mass spectrometer Qtrap 5500 (AB Sciex, Concord, Toronto, ON, Canada), abbreviation RF-MS. The samples were aspirated directly from the plates into a 10 μL sample loop and passed through a C4 cartridge with solvent A (5% acetonitrile, 95% water, 0.1% formic acid) at a flow rate of 1.5 mL/min for 3 s. After the desalting step, analytes retained on the cartridge were eluted with solvent B (95% acetonitrile, 5% water, 0.1% formic acid) in the mass spectrometer at a flow rate of 0.4 mL/min for 5 s. The mass spectrometry of the samples was carried out using electrospray ionisation in the positive ion mode. Daughter ion peaks were identified using a multiple-reaction monitoring protocol.
According to the protocol, reaction mixtures included tested compound (5.74 μM), human liver microsomes, NADPH-generating system consisting of NADP^+, isocitrate dehydrogenase, isocitric acid, and MgSO4 in 100 mM K/PO4 buffer. Assay was performed at 0, 15, 30, and 60 min. Reactions were terminated using acetonitrile–methanol (2:1) mixture. After centrifugation, the supernatant was lyophilized and analysed by RF-MS. The values of intrinsic clearance were calculated using the formula: CLint = 0.693/t1/2/mg microsome protein per mL of reaction.

human bactosomes CYP3A4 = molecular target: T1, human bactosomes CYP3A4 (Homo sapiens, UniProt P08684); assay: Isothermal titration calorimetry, bactosomes CYP3A4; assay type: binding; conditions: 25 °C; for n, CYP3A4B: ITC stoichiometry, pH 7.4; for Ka, CYP3A4B / ΔG, CYP3A4B / ΔH, CYP3A4B / ΔS, CYP3A4B / Kd: ITC, pH 7.4, 1% DMSO; for Kd: read-out: Kd, CYP3A4B
T1 construct: purchased Cypex (Dundee, UK); host or cells: bacterial membranes ('bactosomes')
Description: (§2) The interactions of the compounds with selected forms of cytochrome P450, i.e., human bactosomes CYP1A2, CYP2A6, CYP3A4, and recombinant human CYP3A4, were studied using isothermal titration calorimetry (ITC). ITC experiments were performed at 25 °C with a Nano ITC Low Volume (TA Instruments, New Castle, DE, USA). During all measurements, 20 injections of 16µM of the studied compound (2.5 µL each) were titrated into 250 µL of protein (2 µM) with time intervals of 300 s and a stirring speed of 250 rpm. All ITC experiments were conducted with degassed buffered solutions (100 mM phosphate buffer, pH 7.4) in the presence of 1% DMSO. Control experiments included the titration of each complex solution into a buffer. The corrected data refer to experimental data after subtraction of the buffer control data from the compounds data. The resulting thermograms were analysed using the “Independent” model within the NanoAnalyze software (TA Instruments, New Castle, DE, USA).

CYP3A4/5 = CYP3A4/5 activity (testosterone 6β-hydroxylation) in human liver microsomes; conditions: for Type of inhibition, CYP3A4/5 (testosterone 6β-hydroxylation) / Ki: Dixon and Lineweaver–Burk plots; for IC50: read-out: IC50 CYP3A4/5 (testosterone 6β-hydroxylation assay), human liver microsomes; for Ki: read-out: Ki CYP3A4/5 (testosterone 6β-hydroxylation assay), substrate ½ Km to 4 Km
Description: For each enzyme assay, the preliminary experiments to determine Michaelis constant (Km) and limiting velocity (Vmax) were performed to calculate the time of incubation (the specified time for which the reaction is still linear) and the values of substrate concentration (in the range corresponding to the value of Km). The amount of human liver microsomes (HLM; expressed as the amount of CYP in pmol and the concentration of HLM protein in mg/mL in the reaction vessel) in the reaction was determined using previously established protocols [40].
The reaction mixtures were buffered by 0.1 M potassium phosphate buffer (pH 7.4) and contained a NADPH-generating system consisting of the isocitrate dehydrogenase (6 U/mL), NADP^+ (0.5 mM), isocitric acid (4 mM), and MgSO4 (5 mM). The final concentration levels of complexes were obtained by diluting a 10 mM solution with dimethyl sulfoxide (DMSO). It is known that DMSO can in some cases inhibit P450; the following measures were thus applied: (a) control samples containing organic solvent without the tested compounds were prepared and used as references; (b) DMSO levels were maintained below 0.1% to minimise the inhibition. Inhibition experiments were performed using five concentration levels of the tested compounds in the range of 10–100 µM. The maximum concentration was chosen so that in the case of inhibition, it would be possible to determine the inhibitory effect of the complexes and characterise them by determining the IC50 value. Additionally, an inhibitor-free control was used as a reference. Incubations were executed in two independent batches, and the samples were prepared and measured in triplicate at 37 °C.
The type of model was selected on the basis of the Lineweaver–Burk and Dixon plots. The values of IC50 were obtained by analysing the plot of the percentage of activity remaining after inhibition versus the logarithm of the inhibitor concentration using the GraphPad Prism 6 software (La Jolla, CA, USA).

plasma proteins = assay: Plasma protein binding (rapid equilibrium dialysis); assay type: in vitro ADME, human; conditions: 10 μM in 50% plasma, 37 °C, 4 h
Description: as §1, with “The mass spectrometry of the samples was carried out using electrospray ionisation in the positive ion mode. Daughter ion peaks were identified using a multiple-reaction monitoring protocol.” left out
The fraction bound value was determined using the semipermeable membrane that separates a protein-containing compartment (R chamber) from a protein-free compartment (W chamber) (Rapid Equilibrium Dialysis, Thermo Scientific™, Rockford, IL, USA). […] Samples were dissolved in mobile phase containing internal standard and analysed on the RF/MS.

human bactosomes CYP1A2 = molecular target: T2, human bactosomes CYP1A2 (Homo sapiens, UniProt P05177); assay: Isothermal titration calorimetry, bactosomes CYP1A2; assay type: binding; conditions: 25 °C, 100 mM phosphate buffer pH 7.4, 1% DMSO
T2 construct: purchased BD Biosciences (Franklin Lakes, NJ, USA); host or cells: bacterial membranes ('bactosomes')
T2 sequence (P05177 1-516): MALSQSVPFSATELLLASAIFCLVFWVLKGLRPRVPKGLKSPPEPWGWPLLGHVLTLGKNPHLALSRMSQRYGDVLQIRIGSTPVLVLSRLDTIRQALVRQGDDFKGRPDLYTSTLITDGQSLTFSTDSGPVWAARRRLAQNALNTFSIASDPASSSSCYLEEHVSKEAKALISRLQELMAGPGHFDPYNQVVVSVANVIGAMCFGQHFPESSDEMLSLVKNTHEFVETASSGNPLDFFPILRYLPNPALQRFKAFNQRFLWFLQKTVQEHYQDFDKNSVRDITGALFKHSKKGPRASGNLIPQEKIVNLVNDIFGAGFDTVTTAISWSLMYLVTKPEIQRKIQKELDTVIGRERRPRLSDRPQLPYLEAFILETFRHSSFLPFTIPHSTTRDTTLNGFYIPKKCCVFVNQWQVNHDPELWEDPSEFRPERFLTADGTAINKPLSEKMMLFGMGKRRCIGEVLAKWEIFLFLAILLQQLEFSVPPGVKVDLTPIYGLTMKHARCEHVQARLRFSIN
Description: as §2

[2] = Parallel artificial membrane permeability assay (PAMPA); assay type: in vitro ADME; conditions: category according to log Papp
Description: Pharmacological properties of the complexes 1 and 2, including stability in plasma, microsomal stability, binding to plasma proteins, and permeability through an artificial membrane, were tested under in vitro conditions and according to methods described in previous reports. Analysis of the samples was performed using Agilent RapidFire 300 High-Throughput Mass Spectrometry System (Agilent Technologies, Wakefield, MA, USA) with subsequent detection using the mass spectrometer Qtrap 5500 (AB Sciex, Concord, Toronto, ON, Canada), abbreviation RF-MS. […]
PAMPA was performed with the Millipore MultiScreen filter MultiScreen-IP Durapore 0.45-μm plates and receiver plates (Merck Millipore, Burlington, MA, USA). […] The permeation of compounds across a filter membrane (activation by 10% lecithin in dodecane) was quantified by RF/MS after 18 h incubation at room temperature. The apparent permeability, logPe, was calculated from the following equation: logPe = log{C× − ln(1 − drugA/drugE)}; C = (VA × VD)/{(VD + VA) × A × T}, where VD and VA are the volumes of the donor and acceptor compartments, respectively; A is the active surface area of the membrane; T is the time of the incubation in seconds; and drugA or drugE represents the concentration of the tested compounds in the acceptor compartment and in the solution in theoretical equilibrium.

T1 sequence (P08684 whole entry): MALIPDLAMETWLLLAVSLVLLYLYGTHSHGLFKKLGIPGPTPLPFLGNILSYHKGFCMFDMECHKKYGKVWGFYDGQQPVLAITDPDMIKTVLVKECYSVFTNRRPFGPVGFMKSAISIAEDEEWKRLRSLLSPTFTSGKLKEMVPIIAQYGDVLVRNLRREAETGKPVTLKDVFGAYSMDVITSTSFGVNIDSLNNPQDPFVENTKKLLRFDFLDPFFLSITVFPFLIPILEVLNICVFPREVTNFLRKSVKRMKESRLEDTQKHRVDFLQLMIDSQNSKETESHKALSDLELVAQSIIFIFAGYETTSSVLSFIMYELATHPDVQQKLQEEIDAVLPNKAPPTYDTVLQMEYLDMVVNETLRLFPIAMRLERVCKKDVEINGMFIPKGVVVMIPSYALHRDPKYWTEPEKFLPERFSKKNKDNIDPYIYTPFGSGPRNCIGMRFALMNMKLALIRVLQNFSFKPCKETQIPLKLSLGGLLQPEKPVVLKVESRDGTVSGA

Row | SMILES | % Compound remaining, Microsomal stability, 15 min [1] | % Compound remaining, Microsomal stability, 30 min [1] | % Compound remaining, Microsomal stability, 60 min [1] | n, CYP3A4B (human bactosomes CYP3A4) | Ka, CYP3A4B (human bactosomes CYP3A4) | ΔG, CYP3A4B (human bactosomes CYP3A4) | ΔH, CYP3A4B (human bactosomes CYP3A4) | ΔS, CYP3A4B (human bactosomes CYP3A4) | Kd (human bactosomes CYP3A4) | Type of inhibition, CYP3A4/5 (testosterone 6β-hydroxylation) (CYP3A4/5) | CYP3A4/5 activity remaining (testosterone 6β-hydroxylation), % of basal activity (CYP3A4/5; at 100 μM) | IC50 (CYP3A4/5) | Ki (CYP3A4/5) | Plasma protein binding, % Fraction bound (plasma proteins) | ITC interaction with CYP1A2B (human bactosomes CYP1A2) | PAMPA Category [2]
1 | Cc1cc2cccnc2c2ncccc12.F[B-](F)(F)F.O.O=c1c([O-])c(-c2ccccc2)[nH]c2ccccc12.[Cu+2] [complex 2] | 76.5 ± 2.7% | 76.2 ± 2.7% | 70% and 69.7 ± 2.4% | 0.859 | 2.17e+07 M⁻¹ | −41,881.2 J/mol | -62.71 kJ/mol | −69.86 J/mol.K | 0.0461 µM | fully non-competitive | 1% | 4.88 µM | 3.94 ± 0.6 µM | 93% and 92.9 ± 1.5% | no interaction | Low (those with log Papp < −5 were considered poorly permeable)
2 | Cc1cc2cccnc2c2ncccc12.O.O=[N+]([O-])[O-].O=c1c([O-])c(-c2ccccc2)[nH]c2ccccc12.[Cu+2] [complex 1] | 99.4 ± 3.5% | 80.7 ± 2.8% | 78% and 78.1 ± 1.7% | 0.911 | 1.92e+07 M⁻¹ | −41,558.7 J/mol | -80.02 kJ/mol | −129 J/mol.K | 0.0521 µM | non-competitive | – | 2.46 µM | 3.6 ± 0.67 µM | 95% and 95.1 ± 1.0% | no interaction | Low (those with log Papp < −5 were considered poorly permeable)
